# Measured values from publication PMC4822253, “Inhibition of BMP and of TGFβ receptors downregulates expression of XIAP and TAK1 leading to lung cancer cell death” (Molecular Cancer, 2016).
# Assays:
# H1299 Id1-luc cells = assay: Id1-promoter luciferase reporter assay; format: cell-based
# Method: H1299 cells were stably transfected with the Id1-promoter luciferase reporter. Treated cells were lysed with 1X luciferase lysis buffer (Promega). Samples were added to luciferase assay substrate (Promega) and luminsescence measured by the TD-20/20 Luminometer (Turner Designs/Turner BioSystems, Sunnyvale, CA). Control samples included luciferase assay substrate alone and luciferase assay substrate plus 1X reporter lysis buffer.
# H1299 cells [1] = assay: Western blot analysis of cells in culture; format: cell-based
# Method: Total cellular protein was prepared using RIPA buffer containing a protease inhibitor cocktail and protein concentration was measured using the BCA assay as described. In brief, protein was analyzed by SDS-PAGE, transferred to nitrocellulose (Schleicher and Schuell, Keene, NH). After blocking, the blots were incubated overnight at 4 °C with the appropriate primary antibody in Tris-buffered saline with 1 % Tween (TBST) and 5 % BSA. Secondary antibodies were applied for 1 h at room temperature. Specific proteins were detected using the enhanced chemiluminescence system (Amersham, Arlington Heights, IL). The primary antibodies that were used were rabbit monoclonal anti-pSmad 1/5, rabbit monoclonal anti-pSmad2, rabbit monoclonal anti-Smad2, rabbit monoclonal anti-pTAK1, rabbit monoclonal XIAP, rabbit anti-monoclonal p-p65, rabbit monoclonal anti-activated caspase-3, rabbit polyclonal anti-BMPRII, and rabbit monoclonal anti-EGR-1 (Cell signaling Technology, Danvers MA), Rabbit monoclonal anti-TAK1 (Invitrogen, Grand Island NY), rabbit anti-actin, an affinity isolated antigen specific antibody (Sigma, Saint Louis, MO), rabbit monoclonal anti-Id1 and rabbit monoclonal anti-Id3 (Calbioreagents, San Mateo, CA), rabbit polyclonal anti-GAPDH (Sigma, St. Louis, MO) and rabbit polyclonal pMEK-1/2 (Cell Signaling, Danvers MA).
# A549 cells = assay: Cell counts (live cells, trypan blue); format: cell-based; conditions: compound alone, 7 days
# Method: (§1) Cells were plated into 6 well plates at 10^5 cells per well and treated with 1 μM DMSO or antagonist for 7 days. The cells were detached with trypsin, stained with trypan blue, and the number of live cells counted using a hemocytometer.
# H1299 cells [2] = assay: Cell counts (live cells, trypan blue); format: cell-based; conditions: compound alone, 7 days
# Method: as §1
# H1299 cells [3] = assay: Cell death assay (ethidium bromide uptake); format: cell-based; conditions: H1299 cells; after 3 days
# Method: Cells were plated in 6 well plates with 10^6 cells per well. Three days following treatment with inhibitor(s) and/or transfection the adherent and floating cells were harvested and incubated with 0.1 mg/ml of ethidium bromide. Cells that die by necrosis or apoptosis lose membrane integrity and take up ethidium bromide. Immediately after staining approximately 100 cells were counted and the percentage of cells that took up ethidium bromide was determined.
# Alk5/TGFbetaR1 = target: T1, Alk5/TGFbetaR1 (Homo sapiens, UniProt P36897); conditions: cited from earlier work
# T1 construct: purchased Reaction Biology Corporation (Malvern, PA)
# T1 sequence (P36897 34-503): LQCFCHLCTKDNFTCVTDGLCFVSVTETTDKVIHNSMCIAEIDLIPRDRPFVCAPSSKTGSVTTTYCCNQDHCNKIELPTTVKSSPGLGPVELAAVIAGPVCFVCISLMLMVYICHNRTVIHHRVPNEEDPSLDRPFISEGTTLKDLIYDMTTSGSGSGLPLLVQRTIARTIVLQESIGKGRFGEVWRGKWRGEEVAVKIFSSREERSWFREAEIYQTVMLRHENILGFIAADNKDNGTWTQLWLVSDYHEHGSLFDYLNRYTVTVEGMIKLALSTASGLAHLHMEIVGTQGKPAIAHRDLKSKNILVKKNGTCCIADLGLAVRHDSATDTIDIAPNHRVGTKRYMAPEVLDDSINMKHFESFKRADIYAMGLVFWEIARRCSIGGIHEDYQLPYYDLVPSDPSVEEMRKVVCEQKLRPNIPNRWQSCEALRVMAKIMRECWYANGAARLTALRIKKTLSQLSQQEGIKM
# BMPRII = target: T2, BMPRII (Homo sapiens, UniProt Q13873); parameters: method as in PMID 23639540; conditions: reported literature (Table 1); cited from earlier work
# T2 construct: purchased Reaction Biology Corporation (Malvern, PA)
# T2 sequence (Q13873 27-1038): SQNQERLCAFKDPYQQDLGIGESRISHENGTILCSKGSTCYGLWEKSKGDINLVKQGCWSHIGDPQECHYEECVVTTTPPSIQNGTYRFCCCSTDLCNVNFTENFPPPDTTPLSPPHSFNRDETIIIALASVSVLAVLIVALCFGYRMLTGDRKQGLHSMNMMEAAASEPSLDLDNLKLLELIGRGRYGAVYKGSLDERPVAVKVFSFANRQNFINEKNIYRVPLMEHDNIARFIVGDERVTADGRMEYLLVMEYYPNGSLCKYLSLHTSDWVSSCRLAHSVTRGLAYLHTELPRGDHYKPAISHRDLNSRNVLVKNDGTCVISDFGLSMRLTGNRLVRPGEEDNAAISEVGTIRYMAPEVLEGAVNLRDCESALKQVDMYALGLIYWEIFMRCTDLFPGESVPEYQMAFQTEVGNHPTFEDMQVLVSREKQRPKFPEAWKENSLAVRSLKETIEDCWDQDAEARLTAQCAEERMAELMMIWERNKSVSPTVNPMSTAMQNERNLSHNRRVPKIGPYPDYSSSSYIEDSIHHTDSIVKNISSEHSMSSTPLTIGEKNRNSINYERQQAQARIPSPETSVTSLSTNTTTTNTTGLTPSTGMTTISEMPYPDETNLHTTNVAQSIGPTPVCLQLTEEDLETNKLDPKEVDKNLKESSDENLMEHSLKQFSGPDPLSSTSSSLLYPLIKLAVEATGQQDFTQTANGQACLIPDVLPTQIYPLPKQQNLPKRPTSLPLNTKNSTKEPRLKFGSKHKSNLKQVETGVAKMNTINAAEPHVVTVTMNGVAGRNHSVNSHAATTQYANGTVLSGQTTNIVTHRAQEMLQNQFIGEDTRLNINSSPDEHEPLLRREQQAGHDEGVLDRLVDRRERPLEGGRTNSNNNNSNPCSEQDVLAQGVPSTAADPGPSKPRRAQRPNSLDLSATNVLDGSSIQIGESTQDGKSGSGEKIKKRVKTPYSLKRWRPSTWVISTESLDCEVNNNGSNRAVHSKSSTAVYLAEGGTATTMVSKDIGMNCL
# Alk2/ACVRR1 = target: T3, Alk2/ACVRR1 (Homo sapiens, UniProt Q04771); parameters: purchased Reaction Biology Corporation (Malvern, PA); conditions: reported literature; read-out: IC50 Alk2/ACVRR1; cited from earlier work
# T3 sequence (Q04771 21-509): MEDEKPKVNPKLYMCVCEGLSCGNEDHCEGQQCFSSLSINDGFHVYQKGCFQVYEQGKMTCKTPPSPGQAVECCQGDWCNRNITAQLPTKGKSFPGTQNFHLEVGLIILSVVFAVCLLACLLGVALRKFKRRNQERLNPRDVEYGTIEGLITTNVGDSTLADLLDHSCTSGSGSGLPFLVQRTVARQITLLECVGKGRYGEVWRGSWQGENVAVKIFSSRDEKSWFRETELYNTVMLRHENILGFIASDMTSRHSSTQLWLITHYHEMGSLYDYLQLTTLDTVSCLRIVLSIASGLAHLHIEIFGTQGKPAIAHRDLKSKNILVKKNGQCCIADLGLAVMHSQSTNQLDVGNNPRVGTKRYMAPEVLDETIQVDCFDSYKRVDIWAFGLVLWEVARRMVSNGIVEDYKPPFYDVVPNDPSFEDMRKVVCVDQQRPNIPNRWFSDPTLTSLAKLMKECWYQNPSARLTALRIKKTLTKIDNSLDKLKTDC
# Alk3/BMPR1A = Alk3/BMPR1A (Homo sapiens, UniProt P36894); parameters: purchased Reaction Biology Corporation (Malvern, PA); method as in PMID 23639540; conditions: reported literature; cited from earlier work
# Chain of Alk3/BMPR1A (P36894 24-532): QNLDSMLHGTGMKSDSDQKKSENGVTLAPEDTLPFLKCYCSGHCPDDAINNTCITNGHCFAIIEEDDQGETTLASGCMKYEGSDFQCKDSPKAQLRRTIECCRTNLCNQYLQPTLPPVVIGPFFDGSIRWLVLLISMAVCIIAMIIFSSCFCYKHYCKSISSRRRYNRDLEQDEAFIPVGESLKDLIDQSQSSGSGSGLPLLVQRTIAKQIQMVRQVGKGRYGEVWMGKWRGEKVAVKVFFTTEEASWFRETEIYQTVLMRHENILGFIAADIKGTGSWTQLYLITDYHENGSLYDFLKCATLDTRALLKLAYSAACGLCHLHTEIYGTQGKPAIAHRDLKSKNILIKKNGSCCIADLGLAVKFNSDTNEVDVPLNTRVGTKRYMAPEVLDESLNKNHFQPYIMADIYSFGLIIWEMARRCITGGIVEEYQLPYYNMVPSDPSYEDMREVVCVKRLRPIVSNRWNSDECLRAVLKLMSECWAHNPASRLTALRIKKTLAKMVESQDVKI
smiles,measurement,setting,value
O=C(NOC[C@H](O)CO)c1ccc(F)c(F)c1Nc1ccc(I)cc1F [PD0325901],promoter activity of Id1 (Id-1 luciferase reporter),H1299 Id1-luc cells; 48 h,did not regulate
Cc1cccc(-c2[nH]c(C(C)(C)C)nc2-c2ccc3c(c2)OCO3)n1 [SB],expression of Id1,"H1299 cells [1]; H1299 cells, compound alone, increasing doses",dose-related increase
same,Id1 promoter activity,H1299 Id1-luc cells; compound alone,increase
same,growth (cell counts),A549 cells,growth suppression
same,growth (cell counts),H1299 cells [2],little effect
CC(C)Oc1ccc(-c2cnc3c(-c4ccnc5ccccc45)cnn3c2)cc1 [DMH1],expression of Smad2,"H1299 cells [1]; H1299 cells, 3 days",did not show significant regulation
same,expression of XIAP,"H1299 cells [1]; H1299 cells, after 3 days (cell line not stated for DMH1 and LDN)",did not downregulate
same,activation of caspase-3,"H1299 cells [1]; H1299 cells, after 3 days, alone or in combination with SB",did not activate
same,activation of Smad2 and TAK1,"H1299 cells [1]; in vitro 48 h, cell line not stated in legend",activation
same,cell death,H1299 cells [3],little cell death
same,activity for TGFβ receptors,Alk5/TGFbetaR1,no activity
same,inhibition of BMPRII,BMPRII,does not occur
same,IC50,Alk2/ACVRR1,108 nM
same,IC50,Alk3/BMPR1A,5 nM
"COc1cc(O)c2c(c1)/C=C/C[C@H](O)[C@H](O)C(=O)/C=C\C[C@H](C)OC2=O [5Z, 5Z-7-oxozeaenol]","expression of pSmad 1/5, Id1, and pTAK1","H1299 cells [1]; H1299 cells, after 24 h",dose-related decrease
same,"expression of Id1, pSmad 1/5, and pTAK1","H1299 cells [1]; H1299 cells, after 48 h",increasing
same,Id1 promoter activity,"H1299 Id1-luc cells; 2 μM, after 24 h",suppressed
same,Id1 promoter activity,H1299 Id1-luc cells; after 48 h,no longer suppressed
